Assay results from paper PMC8553829, “Improvement of a synthetic live bacterial therapeutic for phenylketonuria with biosensor-enabled enzyme engineering” (Nature Communications, 2021).

Target: T1, StlA (PAL, phenylalanine ammonia lyase) (Photorhabdus laumondii, UniProt Q7N4T3)
T1 construct: gene plu2234; full-length, untagged; aTc-inducible low-copy plasmid in E. coli Nissle 1917; soluble cell lysate
T1 sequence (Q7N4T3 1-532): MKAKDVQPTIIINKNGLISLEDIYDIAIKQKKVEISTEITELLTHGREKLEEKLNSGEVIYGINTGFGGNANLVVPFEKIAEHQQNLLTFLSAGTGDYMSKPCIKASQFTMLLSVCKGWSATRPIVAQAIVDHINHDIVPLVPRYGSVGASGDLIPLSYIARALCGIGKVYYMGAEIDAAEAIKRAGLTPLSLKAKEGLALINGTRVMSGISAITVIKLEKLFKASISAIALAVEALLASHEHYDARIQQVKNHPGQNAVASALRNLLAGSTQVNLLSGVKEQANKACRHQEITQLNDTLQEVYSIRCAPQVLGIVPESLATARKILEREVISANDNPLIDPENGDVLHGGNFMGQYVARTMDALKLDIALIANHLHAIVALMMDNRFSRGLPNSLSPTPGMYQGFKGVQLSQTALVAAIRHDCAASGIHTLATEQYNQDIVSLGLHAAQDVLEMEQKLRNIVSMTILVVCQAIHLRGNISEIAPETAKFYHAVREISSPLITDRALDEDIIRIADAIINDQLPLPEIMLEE
Assay: TCA formation followed at A290, nonlinear Michaelis-Menten fit
Format: biochemical
Conditions: soluble lysate of E. coli Nissle (EP2315), 10 µg total protein per well; M9 0.5% glucose, 37 °C
Text: TCA formation followed at A290, nonlinear Michaelis-Menten fit on StlA (PAL, phenylalanine ammonia lyase)

N[C@@H](Cc1ccccc1)C(=O)O [Phe]
KM (mM Phe): 1.69 ± 0.37 mM
